Test results reported in publication PMC3863390 (Molecular nutrition & food research, 2012).
Several values for one entry are separate records, joined by “and”; a condition that tells them apart may be missing. Identical values can stand only once.

Legend:
UMUC3 xenograft = UMUC3 xenograft in athymic nude mice; format: in vivo, mouse; settings: 295 μmol/kg/day oral gavage, 2 weeks
EGFR [1] = assay: Western blot of EGFR expression, UMUC3; format: cell-based, human; settings: 20 μM, 48 hr
[2] = test system: Normal human bladder urothelial cells (NHU); assay: tissue or blood; format: cell-based
EGFR [3] = assay: Western blot of EGFR expression, RT4; format: cell-based, human; settings: 20 μM, 48 hr
caspase 3/7 = assay: Apo-ONE caspase-3/7 assay, RT4; format: cell-based, human; settings: 10 μM, 48 hr
PARP [4] = assay: Western blot of PARP cleavage, RT4; format: cell-based, human; settings: 20 μM, 48 hr
PARP [5] = assay: Western blot of PARP cleavage, UMUC3; format: cell-based, human; settings: 20 μM, 48 hr
RT4 cells [6] = assay: Cell cycle analysis by flow cytometry, RT4; format: cell-based, human; settings: 20 μM, 48 hr
RT4 cells [7] = assay: SRB cell viability assay in RT4 cells; format: cell-based, human; settings: for RT4 cell viability inhibition: 20 μM, 48 hr
HER2/neu [8] = assay: Western blot of HER2/neu expression, RT4; format: cell-based, human; settings: 20 μM, 48 hr
survivin [9] = assay: Western blot of survivin expression, UMUC3; format: cell-based, human; settings: 20 μM, 48 hr
HER2/neu [10] = assay: Western blot of HER2/neu expression, UMUC3; format: cell-based, human; settings: 20 μM, 48 hr
UMUC3 cells = assay: cells; format: cell-based; settings: Homo sapiens, UMUC3, 48 h, read-out: IC50, cell viability
J82 cells [11] = assay: SRB cell viability assay in J82 cells; format: cell-based; settings: Homo sapiens, J82, 48 h, read-out: IC50, cell viability
J82 cells [12] = assay: Cell cycle analysis by flow cytometry, J82; format: cell-based, human; settings: 20 μM, 48 hr
survivin [13] = settings: RT4; 20 μM, 48 hr
[14] = test system: human bladder cancer cell lines (HBCCs); format: cell-based; settings: p>0.8, data not shown

With C[S+]([O-])CCCCN=C=S (centres unmarked) [sulforaphane] the “inhibition of tumor growth rate” value (UMUC3 xenograft) was 42%, the “decrease in final tumor weight” value (UMUC3 xenograft; versus vehicle control soy bean oil) was 33% and the “EGFR protein expression downregulated” value (EGFR [1]) was 54%. The inhibition at 20 µM ([2]; Homo sapiens, 72 h, read-out: inhibition of NHU) was 62%, the “IC50, cell viability” value ([2]; NHU cells, 72 hr) was “not reached” and the “changes in EGFR expression” value (EGFR [3]) was “does not lead to significant changes”. For the same compound, the “increase in caspase 3/7 activity compared to control” value (caspase 3/7) was 2.5 fold, the PARP cleavage increase (PARP [4]) was 2.3 fold and the PARP cleavage increase (PARP [5]) was 3.6 fold. For the same compound, the “increase of cells in the G2/M phase compared to control” value (RT4 cells [6]) was 2.6 fold, the “RT4 cell viability inhibition” value (RT4 cells [7]) was 64% and the IC50 (RT4 cells [7]; Homo sapiens, RT-4, 48 h, read-out: IC50, cell viability) was 11.2 ± 0.3 µM. The “decrease of HER2/neu expression” value (HER2/neu [8]) was 10%, the survivin expression downregulated (survivin [9]) was 35% and the HER2/neu downregulated (HER2/neu [10]) was 90%. For the same compound, the IC50 (UMUC3 cells) was 5.66 ± 1.2 µM, the IC50 (J82 cells [11]) was 7.7 ± 1.8 µM and the “increase of cells in the G2/M phase” value (J82 cells [12]) was 3 fold. The “decrease in survivin expression” value (survivin [13]) was 51% and 44%.

In the case of C[S+]([O-])CCCN=C=S (centres unmarked) [iberin], the “RT4 cell viability inhibition” value (RT4 cells [7]) is reported as 12%.

In the case of C=CCN=C=S [allyl isothiocyanate], the “RT4 cell viability inhibition” value (RT4 cells [7]) is reported as 28%.

In the case of C[S@+]([O-])CCCCN=C=S [S-sulforaphane], the “difference between isomers in inhibitory effects of HBCCs” value [14] is reported as “no difference”.

C[S+]([O-])CCCCN=C=S (centres unmarked) [R-sulforaphane] was tested, and the “difference between isomers in inhibitory effects of HBCCs” value [14] was “no difference”.
